“And” between values parts separate entries of the source, which are not always exact repeats. Equal values may be shown once. Inconclusive results and toxic doses are left out. How the source made its calls: active means survival T/C of 150% or more; inactive means T/C below 125% in these data.
System: CD2F1 mice, L1210 leukemia ip, survival T/C
Assay: NCI In Vivo Anticancer Drug Screen. Data for tumor model L1210 Leukemia (intraperitoneal) in CD2F1 (CDF1) mice
Conditions: higher = longer survival
In short: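 Read-out first: treated-group measurement over vehicle-control measurement, expressed as a ratio. Animals bore a transplanted tumor line and were dosed with compound or vehicle.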

[1] = endpoint: mean survival time, dose: 100.0 mg/kg/injection, schedule: Q01DX001 (ip), vehicle: saline
[2] = endpoint: mean survival time, dose: 200.0 mg/kg/injection, schedule: Q01DX001 (ip), vehicle: saline
[3] = endpoint: mean survival time, dose: 400.0 mg/kg/injection, schedule: Q01DX001 (ip), vehicle: saline
[4] = endpoint: mean survival time, dose: 100.0 mg/kg/injection, schedule: Q01DX001 (ip), vehicle: saline with Tween-80
[5] = endpoint: mean survival time, dose: 100.0 mg/kg/injection, schedule: Q04DX003 (ip), vehicle: saline with Tween-80
[6] = endpoint: mean survival time, dose: 200.0 mg/kg/injection, schedule: Q04DX003 (ip), vehicle: saline with Tween-80
[7] = endpoint: mean survival time, dose: 400.0 mg/kg/injection, schedule: Q04DX003 (ip), vehicle: saline with Tween-80
[8] = endpoint: mean survival time, dose: 100.0 mg/kg/injection, schedule: Q01DX009 (ip), vehicle: saline with Tween-80
[9] = endpoint: mean survival time, dose: 200.0 mg/kg/injection, schedule: Q01DX009 (ip), vehicle: saline with Tween-80
[10] = endpoint: mean survival time, dose: 400.0 mg/kg/injection, schedule: Q01DX009 (ip), vehicle: saline with Tween-80
[11] = endpoint: mean survival time, dose: 100.0 mg/kg/injection, schedule: Q04DX002 (ip), vehicle: saline with Tween-80
[12] = endpoint: mean survival time, dose: 200.0 mg/kg/injection, schedule: Q01DX001 (ip), vehicle: saline with Tween-80
[13] = endpoint: mean survival time, dose: 200.0 mg/kg/injection, schedule: Q04DX002 (ip), vehicle: saline with Tween-80
[14] = endpoint: mean survival time, dose: 400.0 mg/kg/injection, schedule: Q01DX001 (ip), vehicle: saline with Tween-80
[15] = endpoint: mean survival time, dose: 400.0 mg/kg/injection, schedule: Q04DX002 (ip), vehicle: saline with Tween-80
[16] = endpoint: mean survival time, dose: 50.0 mg/kg/injection, schedule: Q01DX009 (ip), vehicle: Klucel (hydroxypropylcellulose) (HPC)
[17] = endpoint: mean survival time, dose: 100.0 mg/kg/injection, schedule: Q01DX009 (ip), vehicle: Klucel (hydroxypropylcellulose) (HPC)

Measured: T/C

O=P(Cl)(Oc1cccc2c(OP(=O)(Cl)N(CCCl)CCCl)cccc12)N(CCCl)CCCl (centres undefined)
inactive: endpoint: mean survival time, dose: 31.25 mg/kg/injection, schedule: Q01DX001 (ip), vehicle: distilled water + Tween-80 100 % of control | endpoint: mean survival time, dose: 62.5 mg/kg/injection, schedule: Q01DX001 (ip), vehicle: distilled water + Tween-80 101 % of control | endpoint: mean survival time, dose: 125.0 mg/kg/injection, schedule: Q01DX001 (ip), vehicle: distilled water + Tween-80 91 % of control | endpoint: mean survival time, dose: 250.0 mg/kg/injection, schedule: Q01DX001 (ip), vehicle: distilled water + Tween-80 95 % of control | endpoint: mean survival time, dose: 500.0 mg/kg/injection, schedule: Q01DX001 (ip), vehicle: distilled water + Tween-80 92 % of control

ONC(CC(O)(NO)NO)c1ccccc1 (centres undefined)
inactive: [1] 107 % of control | [2] 107 % of control | [3] 108 % of control

O=C1/C(=C(/c2ccccc2)N2CCOCC2)Cc2ccccc21
inactive: endpoint: mean survival time, dose: 6.25 mg/kg/injection, schedule: Q01DX009 (ip), vehicle: saline with Tween-80 90 % of control | endpoint: mean survival time, dose: 6.25 mg/kg/injection, schedule: Q04DX003 (ip), vehicle: saline with Tween-80 99 % of control | endpoint: mean survival time, dose: 12.5 mg/kg/injection, schedule: Q01DX009 (ip), vehicle: saline with Tween-80 97 % of control | endpoint: mean survival time, dose: 12.5 mg/kg/injection, schedule: Q04DX003 (ip), vehicle: saline with Tween-80 91 % of control | endpoint: mean survival time, dose: 25.0 mg/kg/injection, schedule: Q01DX009 (ip), vehicle: saline with Tween-80 92 % of control | endpoint: mean survival time, dose: 25.0 mg/kg/injection, schedule: Q04DX003 (ip), vehicle: saline with Tween-80 98 % of control

O.O.[Cl][Pt+2][Cl].[NH-]CC1(C[NH-])CCCCC1
inactive: endpoint: median survival time, dose: 3.12 mg/kg/injection, schedule: Q04DX003 (ip), vehicle: saline 121 % of control

Oc1ccc(CCl)cc1O
inactive: endpoint: mean survival time, dose: 25.0 mg/kg/injection, schedule: Q01DX001 (ip), vehicle: saline with Tween-80 107 % of control | endpoint: mean survival time, dose: 50.0 mg/kg/injection, schedule: Q01DX001 (ip), vehicle: saline with Tween-80 100 % of control | [4] 89 % of control and 103 % of control

NCCc1c[nH]c2ccccc12 (tested in a mixture with another compound)
inactive: [5] 97 % of control | [6] 101 % of control | [7] 94 % of control

Cn1c(CC(O)(C(F)(F)F)C(F)(F)F)c(C(O)(C(F)(F)F)C(F)(F)F)c2ccccc21
inactive: endpoint: mean survival time, dose: 5.0 mg/kg/injection, schedule: Q04DX003 (ip), vehicle: saline with Tween-80 101 % of control | endpoint: mean survival time, dose: 10.0 mg/kg/injection, schedule: Q04DX003 (ip), vehicle: saline with Tween-80 90 % of control | endpoint: mean survival time, dose: 20.0 mg/kg/injection, schedule: Q04DX003 (ip), vehicle: saline with Tween-80 90 % of control

Cc1cccnc1Br
inactive: endpoint: mean survival time, dose: 12.5 mg/kg/injection, schedule: Q01DX009 (ip), vehicle: water 95 % of control | endpoint: mean survival time, dose: 25.0 mg/kg/injection, schedule: Q01DX009 (ip), vehicle: water 103 % of control | endpoint: mean survival time, dose: 50.0 mg/kg/injection, schedule: Q01DX009 (ip), vehicle: water 95 % of control | endpoint: mean survival time, dose: 100.0 mg/kg/injection, schedule: Q01DX009 (ip), vehicle: water 95 % of control | endpoint: mean survival time, dose: 200.0 mg/kg/injection, schedule: Q01DX009 (ip), vehicle: water 88 % of control

[C-]#[O+].[C-]#[O+].[C-]#[O+].[C-]#[O+].[C-]#[O+].[Cr].c1ccc(O[PH+](Oc2ccccc2)Oc2ccccc2)cc1
inactive: endpoint: mean survival time, dose: 50.0 mg/kg/injection, schedule: Q01DX009 (ip), vehicle: saline with Tween-80 96 % of control | [8] 96 % of control | [9] 91 % of control

CCCCCCCCCCCCCCCCOc1ccccc1CNc1cccc(S(=O)(=O)F)c1
inactive: [8] 94 % of control | [5] 95 % of control | [9] 91 % of control | [6] 94 % of control | [10] 87 % of control | [7] 100 % of control

N/C(=N\Cl)C(Cl)(Cl)Cl
inactive: endpoint: mean survival time, dose: 12.5 mg/kg/injection, schedule: Q01DX009 (ip), vehicle: saline 105 % of control | endpoint: mean survival time, dose: 25.0 mg/kg/injection, schedule: Q01DX009 (ip), vehicle: saline 103 % of control | endpoint: mean survival time, dose: 50.0 mg/kg/injection, schedule: Q01DX009 (ip), vehicle: saline 109 % of control

O=C(NC(=S)Nc1cccc2c(O)cccc12)c1cccc(Br)c1
inactive: [4] 88 % of control and 91 % of control | [8] 86 % of control and 98 % of control | [11] 90 % of control and 91 % of control | [5] 94 % of control | [12] 88 % of control and 92 % of control | [9] 103 % of control and 108 % of control | [13] 91 % of control and 94 % of control | [6] 94 % of control | [14] 88 % of control and 90 % of control | [10] 116 % of control and 108 % of control | [15] 90 % of control and 95 % of control | [7] 94 % of control

CCC/C=C(\C)C(C#N)CC (centres undefined)
inactive: endpoint: mean survival time, dose: 75.0 mg/kg/injection, schedule: Q01DX001 (ip), vehicle: saline 100 % of control | endpoint: mean survival time, dose: 150.0 mg/kg/injection, schedule: Q01DX001 (ip), vehicle: saline 97 % of control | endpoint: mean survival time, dose: 300.0 mg/kg/injection, schedule: Q01DX001 (ip), vehicle: saline 101 % of control

COc1ccc2[nH]c(=O)oc(=O)c2c1
inactive: endpoint: mean survival time, dose: 12.5 mg/kg/injection, schedule: Q01DX009 (ip), vehicle: Klucel (hydroxypropylcellulose) (HPC) 96 % of control | endpoint: mean survival time, dose: 25.0 mg/kg/injection, schedule: Q01DX009 (ip), vehicle: Klucel (hydroxypropylcellulose) (HPC) 102 % of control | [16] 108 % of control | [4] 96 % of control | [17] 106 % of control | [8] 104 % of control | [12] 107 % of control | [14] 105 % of control

CCOC(=O)c1c(C)c2c(n1C)CC/C(=C\N1CCOCC1)C2=O
inactive: [11] 93 % of control | [13] 93 % of control | [15] 96 % of control

O=C(O)c1ccccc1NO
inactive: [5] 90 % of control | [6] 98 % of control | [7] 90 % of control

Nc1ccc(C(=O)O)cc1
inactive: [4] 95 % of control | [12] 100 % of control | [14] 101 % of control

CC1(Br)C(Sc2ccccc2[N+](=O)[O-])=Nc2ccccc21 (centres undefined)
inactive: [16] 94 % of control | [17] 94 % of control | endpoint: mean survival time, dose: 200.0 mg/kg/injection, schedule: Q01DX009 (ip), vehicle: Klucel (hydroxypropylcellulose) (HPC) 94 % of control

O=C1OC(c2ccccc2)c2ccccc21 (centres undefined)
inactive: [8] 95 % of control | [9] 100 % of control | [10] 92 % of control

CN(C)C(=S)Oc1c(S(=O)(=O)F)ccc(Cl)c1Cl
inactive: [11] 91 % of control | [13] 91 % of control | [15] 97 % of control

CCN1c2ccccc2Sc2cc(C=O)ccc21
inactive: [16] 97 % of control | [17] 108 % of control

O=S(=O)(c1ccc(Cl)cc1)c1ccc(Cl)cc1
inactive: endpoint: mean survival time, dose: 100.0 mg/kg/injection, schedule: Q01DX001 (ip), vehicle: Klucel (hydroxypropylcellulose) (HPC) 93 % of control | endpoint: mean survival time, dose: 200.0 mg/kg/injection, schedule: Q01DX001 (ip), vehicle: Klucel (hydroxypropylcellulose) (HPC) 90 % of control | endpoint: mean survival time, dose: 400.0 mg/kg/injection, schedule: Q01DX001 (ip), vehicle: Klucel (hydroxypropylcellulose) (HPC) 96 % of control

CCCN(CCC)S(=O)(=O)c1ccc(NC(=O)Oc2ccc([N+](=O)[O-])cc2)cc1
inactive: [1] 94 % of control | [2] 100 % of control | [3] 95 % of control

COC(=O)C12OCC34C(CC5C(C)C6=CC(=O)OC6=CC5(C)C3C(O)C1O)OC(=O)C(O)C24 (centres undefined)
inactive: endpoint: median survival time, dose: 0.25 mg/kg/injection, schedule: Q01DX005 (ip), vehicle: Klucel (hydroxypropylcellulose) (HPC) 112 % of control | endpoint: median survival time, dose: 0.5 mg/kg/injection, schedule: Q01DX005 (ip), vehicle: Klucel (hydroxypropylcellulose) (HPC) 114 % of control

Nc1ncnc2c1[nH]c(=O)n2C1OC(CO)C(O)C1O (centres undefined)
inactive: [11] 95 % of control | [13] 107 % of control | [15] 95 % of control

COc1ccc(-c2ncn(-c3ccc(S(=O)(=O)O)cc3)c2-c2ccc(OC)cc2)cc1
inactive: endpoint: mean survival time, dose: 100.0 mg/kg/injection, schedule: Q04DX003 (ip), vehicle: Klucel (hydroxypropylcellulose) (HPC) 95 % of control | endpoint: mean survival time, dose: 200.0 mg/kg/injection, schedule: Q04DX003 (ip), vehicle: Klucel (hydroxypropylcellulose) (HPC) 95 % of control | endpoint: mean survival time, dose: 400.0 mg/kg/injection, schedule: Q04DX003 (ip), vehicle: Klucel (hydroxypropylcellulose) (HPC) 102 % of control

COC(=O)C(C)CC(C)(C=O)OC (centres undefined)
inactive: [8] 102 % of control | [9] 96 % of control | [10] 96 % of control

O=C(O)CC1=C(c2ccc3ccccc3c2)CCC1=O
inactive: [1] 98 % of control | [2] 98 % of control | [3] 98 % of control
